“And” between values parts separate entries of the source, which are not always exact repeats. Equal entries are not always repeated. Structures can show the parent of a compound that is named as a salt. Where two headings read alike, the source gives them in different places.
Legend:
dog BGT-1 = settings: read-out: IC50, dog VGT-1, inhibition of [3H]GABA uptake; oocytes (Yamauchi et al., 1992); except GABA estimated from percent inhibition at a single concentration; cited from earlier work
human BGT-1 [1] = biological target: T1, human BGT-1 (Homo sapiens, UniProt P48065); test: cell-based
T1 sequence (P48065 1-614 C10Y): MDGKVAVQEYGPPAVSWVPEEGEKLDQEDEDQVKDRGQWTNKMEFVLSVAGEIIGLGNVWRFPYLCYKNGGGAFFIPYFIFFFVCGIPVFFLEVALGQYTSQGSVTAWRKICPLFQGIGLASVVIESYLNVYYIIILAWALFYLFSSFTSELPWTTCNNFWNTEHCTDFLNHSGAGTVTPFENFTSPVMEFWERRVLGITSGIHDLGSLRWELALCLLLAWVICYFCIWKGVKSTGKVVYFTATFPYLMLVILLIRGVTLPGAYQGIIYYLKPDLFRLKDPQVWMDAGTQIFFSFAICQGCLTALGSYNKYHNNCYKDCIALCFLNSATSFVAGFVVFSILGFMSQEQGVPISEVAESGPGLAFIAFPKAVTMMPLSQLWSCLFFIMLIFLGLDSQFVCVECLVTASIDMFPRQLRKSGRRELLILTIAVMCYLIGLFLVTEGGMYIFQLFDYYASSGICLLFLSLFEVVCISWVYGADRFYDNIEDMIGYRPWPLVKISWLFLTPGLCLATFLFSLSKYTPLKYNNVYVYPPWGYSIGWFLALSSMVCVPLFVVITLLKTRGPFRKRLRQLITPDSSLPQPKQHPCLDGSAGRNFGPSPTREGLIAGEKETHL
Description: (§2) Cells were grown under standard conditions (37° C., 5% CO2) in Dulbecco's modified Eagles's medium (GIBCO, Grand Island, N.Y.).
(§3) After 10 minutes the medium was removed and unlabeled drugs in HBS were added (450 μl/well). […] Plates were incubated at 37° C. for 10 minutes, then washed rapidly 3× with ice-cold HBS, using a 24-position plate washer (Brandel, Gaithersburg, Mass.; model PW-12). Cells were solubilized with 0.05% sodium deoxycholate/0.1N NaOH (0.25 ml/well), an aliquot neutralized with 1N HCl, and radioactivity was determined by scintillation counting. Protein was quantified in an aliquot of the solubilized cells using a BIO-RAD protein assay kit, according to the manufacturer's directions.
(§4) Data Analysis: Competition curves were conducted in duplicate, using 10 concentrations of unlabeled drug. […] All data throughout the paper represent means±SEM.
(§5) Cells were grown under standard conditions (37° C., 5% CO2) in DMEM (Dulbecco's modified Eagles's medium; GIBCO, Grand Island, N.Y.).
(§6) Cells grown in 24-well plates were washed 3× with HEPES-buffered saline (HBS, in mM: NaCl, 150; HEPES, 20; CaCl2, 1; glucose, 10; KCl, 5; MgCl2 1; pH 7.4) and allowed to equilibrate on a 37° C. slide warmer. After 10 minutes the medium was removed and unlabeled drugs in HBS were added (450 μl/well). […] Plates were incubated at 37° C. for 10 minutes, then washed rapidly 3× with ice-cold HBS, using a 24-position plate washer (Brandel, Gaithersburg, Mass.; model PW-12). Cells were solubilized with 0.05% sodium deoxycholate/0.1N NaOH (0.25 ml/well), an aliquot neutralized with 1N HCl, and radioactivity was determined by scintillation counting. Protein was quantified in an aliquot of the solubilized cells using a BIO-RAD protein assay kit, according to the manufacturer's directions.
(§7) Competition curves were conducted in duplicate, using 10 concentrations of unlabeled drug. […] All data throughout the paper represent means±S.E.M.

Type 1 astrocytes = test: Inhibition of [3H]GABA uptake in Type 1 astrocyte cultures; format: cell-based, rat; settings: read-out: IC50, Type 1 astrocytes, inhibition of [3H]GABA uptake
Description: Preparation of primary rat astrocyte cell cultures: Primary glial cultures were established from newborn Sprague-Dawley rat brains. Brains minus cerebella were removed aseptically and carefully dissected free of meninges. […] The cells were dissociated by trituration through a serological pipet. Separate procedures were then used for the preparation of Type-1 and O-2A/Type-2 astrocyte cultures, as will now be described.
For the preparation of Type-1 astrocyte cultures, cells were plated onto uncoated 75 cm^2 flasks at low density (1 brain per 10 flasks, or approximately 8×10^4 cells/cm^2). The medium was changed the following day and twice a week thereafter.
(§1) Data represent means±SEM.

neuronal cultures = test: Inhibition of [3H]GABA uptake in primary rat neuronal cultures; format: cell-based
Description: Brains were removed aseptically from E17 embryonic Sprague-Dawley rats brains, carefully dissected free of meninges, and kept on ice. A single-cell suspension was made by mincing the brains, followed by trituration through a serological pipet. […] On day three cytosine β-D-arabinofuransoside (3 μM) was added to control the proliferation of non-neuronal cells. The cultures were used for transport assay approximately one week after plating.
as §1

brain synaptosomes = settings: Ali et al. (1985); cited from earlier work
human GAT-3 = biological target: T2, human GAT-3 (Homo sapiens, UniProt P48066); test: Inhibition of [3H]GABA uptake, human GAT-3 stable LM(tk-) cell line; format: cell-based; settings: read-out: IC50, human GAT-3, inhibition of [3H]GABA uptake, Table 9, means ± S.E.M.
T2 construct: expressed in transfected cells
T2 sequence (P48066 1-632): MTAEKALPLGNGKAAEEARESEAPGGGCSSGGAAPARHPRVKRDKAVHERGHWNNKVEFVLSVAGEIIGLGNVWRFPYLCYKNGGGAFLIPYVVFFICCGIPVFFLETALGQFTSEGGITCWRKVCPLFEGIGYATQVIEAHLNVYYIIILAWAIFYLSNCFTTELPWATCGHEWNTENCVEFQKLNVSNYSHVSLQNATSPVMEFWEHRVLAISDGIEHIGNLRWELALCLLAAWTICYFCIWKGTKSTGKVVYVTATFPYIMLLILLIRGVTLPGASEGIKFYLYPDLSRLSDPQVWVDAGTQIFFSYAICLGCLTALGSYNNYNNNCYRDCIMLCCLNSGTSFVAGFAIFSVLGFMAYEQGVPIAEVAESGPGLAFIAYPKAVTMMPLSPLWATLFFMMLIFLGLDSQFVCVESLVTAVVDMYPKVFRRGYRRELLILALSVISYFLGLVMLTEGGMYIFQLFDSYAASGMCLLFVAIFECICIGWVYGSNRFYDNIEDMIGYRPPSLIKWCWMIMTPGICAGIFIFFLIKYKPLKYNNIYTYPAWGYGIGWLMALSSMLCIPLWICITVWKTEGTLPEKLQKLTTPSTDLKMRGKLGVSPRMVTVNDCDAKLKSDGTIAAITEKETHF
Description: as §5, §6, §7

[2] = literature reports; cited from earlier work
[3] = Phase II clinical trials; cited from earlier work
human BGT-1 [4] = biological target: T1, human BGT-1
Description: as §2, §3, §4, §5, §6, §7

rat GAT-2 = biological target: T3, rat GAT-2 (Rattus norvegicus, UniProt P31646); test: Inhibition of [3H]GABA uptake, rat GAT-2 stable LM(tk-) cell line; format: cell-based; settings: read-out: IC50, rat GAT-2, inhibition of [3H]GABA uptake, Table 9, means ± S.E.M.
T3 construct: expressed in transfected cells
T3 sequence (P31646 1-602): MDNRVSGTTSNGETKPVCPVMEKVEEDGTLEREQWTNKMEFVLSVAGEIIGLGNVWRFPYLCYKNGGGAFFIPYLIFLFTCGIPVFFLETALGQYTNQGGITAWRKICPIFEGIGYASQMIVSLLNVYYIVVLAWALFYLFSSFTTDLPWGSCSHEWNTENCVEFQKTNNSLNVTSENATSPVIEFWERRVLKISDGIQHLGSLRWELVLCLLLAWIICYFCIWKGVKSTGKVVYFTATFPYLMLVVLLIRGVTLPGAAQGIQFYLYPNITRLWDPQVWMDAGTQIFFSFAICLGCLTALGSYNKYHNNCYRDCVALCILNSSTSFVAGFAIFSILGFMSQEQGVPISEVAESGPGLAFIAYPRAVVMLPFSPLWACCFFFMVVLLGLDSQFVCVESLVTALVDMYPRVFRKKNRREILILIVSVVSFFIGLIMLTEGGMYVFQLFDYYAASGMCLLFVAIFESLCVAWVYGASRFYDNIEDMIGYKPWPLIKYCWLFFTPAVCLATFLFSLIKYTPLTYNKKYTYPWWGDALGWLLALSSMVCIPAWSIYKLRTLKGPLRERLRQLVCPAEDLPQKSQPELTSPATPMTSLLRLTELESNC
Description: as §5, §6, §7

mouse GAT-2 [5] = biological target: T4, mouse GAT-2 (Mus musculus, UniProt P31651); parameters: host or cells: oocytes (Lopez-Corcuera et al., 1992); settings: read-out: IC50, mouse GAT-2, inhibition of [3H]GABA uptake; oocytes (Lopez-Corcuera et al., 1992); except GABA estimated from percent inhibition at one or two concentrations; cited from earlier work
T4 sequence (P31651 1-614): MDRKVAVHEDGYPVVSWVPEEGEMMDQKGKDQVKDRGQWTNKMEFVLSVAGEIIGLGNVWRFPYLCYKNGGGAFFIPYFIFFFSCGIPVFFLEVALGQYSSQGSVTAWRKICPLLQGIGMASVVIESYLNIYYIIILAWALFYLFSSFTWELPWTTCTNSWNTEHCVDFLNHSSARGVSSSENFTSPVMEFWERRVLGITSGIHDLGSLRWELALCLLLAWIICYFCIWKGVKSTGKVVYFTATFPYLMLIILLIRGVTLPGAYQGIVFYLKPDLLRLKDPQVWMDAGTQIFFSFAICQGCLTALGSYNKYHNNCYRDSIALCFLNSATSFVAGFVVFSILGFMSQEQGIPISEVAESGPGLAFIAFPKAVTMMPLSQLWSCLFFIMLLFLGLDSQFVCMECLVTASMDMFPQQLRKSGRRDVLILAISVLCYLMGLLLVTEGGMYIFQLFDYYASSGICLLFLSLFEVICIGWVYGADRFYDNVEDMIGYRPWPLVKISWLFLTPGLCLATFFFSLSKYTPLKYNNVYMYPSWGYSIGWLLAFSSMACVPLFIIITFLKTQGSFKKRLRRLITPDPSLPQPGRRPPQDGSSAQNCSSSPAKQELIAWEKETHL

mouse GAT-2 [6] = biological target: T4, mouse GAT-2; settings: from Table 1
GAT-2 and GAT-3 [7] = settings: range over clones, regardless of species
Description: as §5, §6, §7

GAT-1 = settings: range over compounds and human/rat clones
Description: as §5, §6, §7

human GAT-1 = human GAT-1 (Homo sapiens, UniProt P30531); settings: read-out: IC50, human GAT-1, inhibition of [3H]GABA uptake; Table 9; stable LM(tk-) cell line; means ± S.E.M.
human GAT-1, sequence (P30531 whole entry): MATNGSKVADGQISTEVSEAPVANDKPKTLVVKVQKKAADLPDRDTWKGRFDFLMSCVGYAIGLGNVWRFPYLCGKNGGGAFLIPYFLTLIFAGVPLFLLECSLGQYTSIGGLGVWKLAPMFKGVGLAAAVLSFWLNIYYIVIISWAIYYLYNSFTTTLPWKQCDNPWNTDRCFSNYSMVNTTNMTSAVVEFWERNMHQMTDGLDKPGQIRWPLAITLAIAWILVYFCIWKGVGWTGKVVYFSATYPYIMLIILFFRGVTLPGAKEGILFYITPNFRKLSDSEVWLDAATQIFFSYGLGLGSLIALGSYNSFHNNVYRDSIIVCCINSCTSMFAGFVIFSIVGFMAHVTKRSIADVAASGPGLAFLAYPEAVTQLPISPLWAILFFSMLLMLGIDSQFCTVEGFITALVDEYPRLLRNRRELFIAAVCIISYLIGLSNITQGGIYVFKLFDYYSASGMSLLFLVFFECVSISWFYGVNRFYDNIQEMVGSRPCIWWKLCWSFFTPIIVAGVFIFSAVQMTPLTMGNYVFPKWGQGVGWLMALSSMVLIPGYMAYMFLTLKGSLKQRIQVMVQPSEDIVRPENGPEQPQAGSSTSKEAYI
Description: as §5, §6, §7

rat brain aggregates = test: Inhibition of [3H]GABA uptake in rat brain aggregates; format: cell-based; settings: read-out: IC50, control, inhibition of [3H]GABA uptake in rat brain aggregates
Description: Briefly, adult rat brains were removed from the skull and the cerebral cortex was dissected and placed in ice-cold HBS. […] The preparation was washed once by centrifugation, then resuspended in HBS.
The filters were washed with ice-cold HBS, punched into vials, and radioactivity determined by scintillation counting. Protein was determined in an aliquot of the aggregate preparation using the BIO-RAD protein assay kit.
as §1

GAT-2 and GAT-3 [8] = test: Inhibition of [3H]GABA uptake at cloned GAT-2 and GAT-3, text summary; settings: read-out: IC50s at GAT-2 and GAT-3 (range); range over clones, regardless of species
Description: as §5, §6, §7

[9] = IC50, hBGT-1, inhibition of [3H]GABA uptake
[10] = IC50, hBGT-1, inhibition of [3H]GABA uptake, stably transfected LM(tk-), 50 nM [3H]GABA, mean ± standard error of at least three experiments
[11] = Rattus norvegicus, Astrocyte, 3 h

Compound: O=C(O)C1CCCNC1 (racemic) [(±)-nipecotic acid, (R,S)-nipecotic acid]
- IC50 (dog BGT-1): 4700 µM

Compound: N[C@@H]1CCC[C@H](C(=O)O)C1 (relative stereo) [ACHC, cis-3-aminocyclohexanecarboxylic acid]
- IC50 (human BGT-1 [1]; [9]): 1850 µM

Compound: N=C(N)NCCS(=O)(=O)O [GES, guanidinoethanesulfonic acid]
- IC50 (human BGT-1 [1]; [10]): 1520 µM

Compound: NCC[C@H](N)C(=O)O [L-DABA, L-(2,4)diaminobutyric acid]
- IC50 (human BGT-1 [1]; [9]): 160 to 600 µM and 354 µM
- IC50 (Type 1 astrocytes; [11]): 3400 µM
- IC50 (dog BGT-1): 4700 µM

Compound: O=C(O)C1=CCCN(CCON=C(c2ccccc2)c2ccccc2)C1 [NNC-711, 1-(2-(((diphenylmethylene)amino)oxy)ethyl)-1,2,4,6-tetrahydro-3-pyridinecarboxylic acid hydrochloride]
- IC50 (human BGT-1 [1]; [10]): 160 to 600 µM
- activity at 10 µM (neuronal cultures; read-out: specific [3H]GABA uptake that persisted in neuronal cultures): 31 ± 1%

Compound: O=C(O)C1CCCN(CCC=C(c2ccccc2)c2ccccc2)C1 (stereo not drawn) [SK&F 89976-A, N-(4,4-diphenyl-3-butenyl)-3-piperidinecarboxylic acid]
- increase in potency over the parent compound (nipecotic acid or guvacine) (brain synaptosomes): 20 fold
- IC50 (human GAT-3): 944 ± 259 µM
- anticonvulsive activity in animals [2]: display anticonvulsive activity

Compound: O=C(O)C1=CCCN(CCC=C(c2ccccc2)c2ccccc2)C1 [SK&F 100330-A]
- increase in potency over the parent compound (nipecotic acid or guvacine) (brain synaptosomes): 20 fold

Compound: Cc1ccsc1C(=CCCN1CCC[C@@H](C(=O)O)C1)c1sccc1C [Tiagabine, (R)-1-[4,4-Bis(3-methyl-2-thienyl)-3-butenyl]-3-piperidencarboxylic acid]
- anti-seizure activity in patients [3]: demonstrated anti-seizure activity
- IC50 (human BGT-1 [4]; read-out: IC50, human BGT-1, inhibition of [3H]GABA uptake, Table 9, stable LM(tk-) cell line, means ± S.E.M.): 1670 ± 722 µM
- IC50 (human GAT-3): 917 ± 193 µM
- anticonvulsive activity in animals [2]: display anticonvulsive activity
- IC50 (rat GAT-2): 1410 ± 250 µM

Compound: C[N+](C)(C)CC(=O)O [betaine]
- IC50 (human BGT-1 [1]; [10]): 934 ± 22 µM
- IC50 (human BGT-1 [1]; IC50 at hBGT-1 as stated in text, stable LM(tk-) cells, [3H]GABA uptake): 1000 to 2000 µM
- IC50 (mouse GAT-2 [5]): 206 µM
- selectivity (potency) for mouse BGT-1 as compared to dog BGT-1 (mouse GAT-2 [6]): 2 fold
- selectivity (potency) for mouse BGT-1 as compared to human BGT-1 (mouse GAT-2 [6]): 5 fold

Compound: O=C(O)C1=CCCNC1 [guvacine]
- IC50s at GAT-2 and GAT-3 (range) (GAT-2 and GAT-3 [7]): 102 to 378 µM
- IC50 (mouse GAT-2 [5]): 2800 µM
- IC50 (human GAT-3): 119 ± 24 µM
- IC50s at GAT-1 (range) (GAT-1): 14 to 39 µM
- IC50 (human GAT-1): 14 ± 3 µM
- IC50 (rat GAT-2): 58 ± 5 µM

Compound: NCCS(=O)O [hypotaurine]
- IC50 (human BGT-1 [1]; [9]): 160 to 600 µM and 380 µM

Compound: O=C(CCc1ccc(O)cc1)c1c(O)cc(O)cc1O [phloretin]
- IC50 (human BGT-1 [1]; [10]): 160 to 600 µM and 160 µM

Compound: C=C[C@H]1C[N@@]2CC[C@H]1C[C@@H]2[C@@H](O)c1ccnc2ccc(OC)cc12 [quinidine]
- IC50 (human BGT-1 [1]; [9]): 1190 µM
- IC50 (mouse GAT-2 [5]): 49 µM

Compound: NCCS(=O)(=O)O [taurine]
- IC50 (human BGT-1 [1]; [9]): 10600 µM
- IC50 (human BGT-1 [1]; IC50 at hBGT-1 as stated in text): > 10000 µM
- IC50 (Type 1 astrocytes; [11]): ~50 µM
- IC50 (Type 1 astrocytes): 47 ± 10 µM
- IC50 (neuronal cultures; Neuron, read-out: IC50, Neurons, inhibition of [3H]GABA uptake): 8300 µM
- IC50 (rat brain aggregates; Rattus norvegicus): 64000 µM

Compound: NCCC(=O)O [β-alanine]
- IC50 (GAT-2 and GAT-3 [8]): 19 to 110 µM
- IC50 (mouse GAT-2 [5]): 1900 µM

Compound: hydroxynipecotic acid
- IC50 (human BGT-1 [4]; read-out: IC50, hBGT-1, inhibition of [3H]GABA uptake): 2590 µM
- IC50 (rat brain aggregates; absence of NNC-711): 10 ± 1 µM
